In the NIST ThermoML archive (doi:10.1021/je060269j):
“And” between values parts separate entries of the source, which are not always exact repeats. Identical values can stand only once.

Settings: Liquid, Flow apparatus with low residence time

CC(=O)OC(C)(C)C [1,1-dimethylethyl ethanoate]
Settings | Critical pressure [kPa] | Critical temperature [K] | vapor or sublimation pressure [kPa]
– | 3040 | 541.2 | –
472.7 K | – | – | 1053
495 K | – | – | 1527
514.5 K | – | – | 2074
533.7 K | – | – | 2722
535.7 K | – | – | 2802
535.9 K | – | – | 2801
536.4 K | – | – | 2835
537.3 K | – | – | 2868
537.7 K | – | – | 2903
538.6 K | – | – | 2949

CC(O)CCO (stereo not given) [1,3-butanediol]
Settings | Critical pressure [kPa] | Critical temperature [K] | vapor or sublimation pressure [kPa]
– | 5180 | 692.4 | –
481.4 K | – | – | 100.2
508.1 K | – | – | 209.6
537.8 K | – | – | 418.5
576 K | – | – | 898.4
614.7 K | – | – | 1719
646.7 K | – | – | 2774
662.5 K | – | – | 3462
676.7 K | – | – | 4158
688.2 K | – | – | 4840

c1cocn1 [1,3-oxazole]
Settings | Critical pressure [kPa] | Critical temperature [K] | vapor or sublimation pressure [kPa]
– | 6770 | 550.8 | –
479 K | – | – | 2424
494.6 K | – | – | 3116
514.9 K | – | – | 4146
535.5 K | – | – | 5523
547.4 K | – | – | 6492

CC(C)c1ccc(C(C)C)cc1 [1,4-diisopropylbenzene]
Settings | Critical pressure [kPa] | Critical temperature [K] | vapor or sublimation pressure
– | 2360 | 676.2 | –
518 K | – | – | 217.1 kPa
552.6 K | – | – | 416.3 kPa
596.8 K | – | – | 837.8 kPa
648.1 K | – | – | 1669 kPa and 1667 kPa
666.2 K | – | – | 2078 kPa
672.3 K | – | – | 2258 kPa
675.9 K | – | – | 2325 kPa

CC1(C)CO1 [2,2-dimethyloxirane]
Settings | Critical pressure [kPa] | Critical temperature [K] | vapor or sublimation pressure [kPa]
– | 4350 | 499.9 | –
320.1 K | – | – | 87.08
339.1 K | – | – | 165.1
365.6 K | – | – | 348.9
393.2 K | – | – | 678.4
428.2 K | – | – | 1381
469.4 K | – | – | 2760
496.4 K | – | – | 4141
499.2 K | – | – | 4306

CSSC [2,3-dithiabutane]
Settings | Critical pressure [kPa] | Critical temperature [K] | vapor or sublimation pressure [kPa]
– | 5070 | 607.8 | –
466.3 K | – | – | 690
500.8 K | – | – | 1244
533.1 K | – | – | 2002
561 K | – | – | 2897
591.4 K | – | – | 4205
604.8 K | – | – | 4902
607.2 K | – | – | 5037

NCCOCCO [2-(2-aminoethoxy)ethanol]
Settings | Critical pressure [kPa] | Critical temperature [K] | vapor or sublimation pressure [kPa]
– | 4800 | 721.2 | –
500.9 K | – | – | 117.3
526.9 K | – | – | 225.2
564.9 K | – | – | 496.6
594.2 K | – | – | 842.6
625.9 K | – | – | 1395
653.9 K | – | – | 2085
685 K | – | – | 3130
716.5 K | – | – | 4521
719.4 K | – | – | 4729

OCCCOCCCO [4-oxa-1,7-heptanediol]
Settings | Critical pressure [kPa] | Critical temperature [K] | vapor or sublimation pressure [kPa]
– | 3380 | 705.2 | –
505 K | – | – | 100.7
534.3 K | – | – | 208.2
564.2 K | – | – | 395.8
607.2 K | – | – | 854.3
649.8 K | – | – | 1631
689.9 K | – | – | 2779
699.1 K | – | – | 3123
703.4 K | – | – | 3296

CCCCSSCCCC [5,6-dithiadecane]
Settings | vapor or sublimation pressure [kPa]
504.2 K | 90.32
535.7 K | 180.3
571.7 K | 349.6
614.9 K | 695.7

O=CN1CCOCC1 [N-formylmorpholine]
Settings | Critical pressure [kPa] | Critical temperature [K] | vapor or sublimation pressure [kPa]
– | 5080 | 779.3 | –
507.5 K | – | – | 91.7
538 K | – | – | 174.8
573.2 K | – | – | 343.4
614.6 K | – | – | 688.1
663.6 K | – | – | 1379
664.7 K | – | – | 1382
723.7 K | – | – | 2761
745.2 K | – | – | 3447
762.7 K | – | – | 4137
775.2 K | – | – | 4826
777.7 K | – | – | 4999

CN(CCO)CCO [N-methyldiethanolamine]
Settings | Critical pressure [kPa] | Critical temperature [K] | vapor or sublimation pressure [kPa]
– | 4160 | 741.9 | –
519.7 K | – | – | 98.59
543.3 K | – | – | 175.1
574.8 K | – | – | 346.1
617.1 K | – | – | 743.9
657.1 K | – | – | 1389
707.5 K | – | – | 2785
728.1 K | – | – | 3475
735.4 K | – | – | 3799
738.4 K | – | – | 3985

C=CC(=O)OCCCC [butyl 2-propenoate]
Settings | Critical pressure [kPa] | Critical temperature [K] | vapor or sublimation pressure [kPa]
– | 2840 | 601.2 | –
441.9 K | – | – | 178.6
471.9 K | – | – | 351.6
506.5 K | – | – | 689.5
549.3 K | – | – | 1380
599.1 K | – | – | 2761

CCOC(=O)C(=O)OCC [diethyl ethanedioate]
Settings | Critical pressure [kPa] | Critical temperature [K] | vapor or sublimation pressure [kPa]
– | 3060 | 645.8 | –
454.6 K | – | – | 90.67
481.8 K | – | – | 182.4
512.9 K | – | – | 359.9
547.3 K | – | – | 690.9
590.1 K | – | – | 1381
638.8 K | – | – | 2761
642.5 K | – | – | 2934
644.4 K | – | – | 3013

CC(=O)OC(C)OC(C)=O [ethylidene diethanoate]
Settings | Critical pressure [kPa] | Critical temperature [K] | vapor or sublimation pressure [kPa]
– | 2970 | 618.2 | –
461.6 K | – | – | 177.6
486.4 K | – | – | 314.3
514.2 K | – | – | 555.5
541.2 K | – | – | 902.2
571.5 K | – | – | 1457
601.1 K | – | – | 2286
608.2 K | – | – | 2561
612 K | – | – | 2697

O=C=Nc1ccccc1 [phenyl isocyanate]
Settings | Critical pressure [kPa] | Critical temperature [K] | vapor or sublimation pressure [kPa]
– | 4000 | 656.9 | –
479.7 K | – | – | 278.9
553.2 K | – | – | 1038
588.3 K | – | – | 1724
618.6 K | – | – | 2551
653 K | – | – | 3795
653.1 K | – | – | 3793

O=S1(=O)CCCC1 [sulfolane]
Settings | vapor or sublimation pressure [kPa]
560.2 K | 103.6
594.4 K | 203.9
626.3 K | 350.2
656.3 K | 556.8
685.1 K | 829.2
713.2 K | 1181
742 K | 1665
773.4 K | 2363
802.7 K | 3185
829 K | 4144

O=C1CCCO1 [γ-butyrolactone]
Settings | Critical pressure [kPa] | Critical temperature [K] | vapor or sublimation pressure [kPa]
– | 5100 | 732.5 | –
474.9 K | – | – | 93.29
501.8 K | – | – | 174.7
532.5 K | – | – | 325.8
562.6 K | – | – | 558.5
600 K | – | – | 1005
639 K | – | – | 1723
673.8 K | – | – | 2643
696.7 K | – | – | 3454
713.8 K | – | – | 4147
726.8 K | – | – | 4779
730.8 K | – | – | 5013
